Laboratory results taken from US11938189B2, “Compositions and methods for stabilizing protein-containing formulations” (Genentech, Inc., priority 2010, dated 2024).

Assays:
[1] = in water at 20-25° C., cited from earlier work; for CMC Value (% w/v): cells printed without %
[2] = test system: anti-CD11a monoclonal antibody; test: Oxidation of Met256 on storage in surfactant-containing antibody solution; format: physicochemical; settings: 0.1% w/v surfactant, pH 6.0, stored at 5° C. or 40° C. for 2 or 4 weeks; FIG. 15
Method: In a second experiment, oxidation of the Met256 amino acid residue in an anti-CD11a monoclonal antibody in solutions containing either n-decyl-β-D-glucopyranoside, n-octyl-β-D-glucopyranoside, or polysorbate 20 was evaluated. For this purpose, 3 ml of the buffered antibody solution (pH 6.0) containing 0.1% w/v of the surfactant was stored in 6 cc vials at either 5° C. or 40° C. for a period of either 2 or 4 weeks.

[3] = test system: anti-MUC16 monoclonal antibody; test: Shaking-induced aggregation (150 rpm), percent monomer by size-exclusion chromatography; format: physicochemical; settings: surfactant at one half of its CMC; shaking 150 rpm, 37° C., 64 hours; FIG. 1
Method: In this set of studies, a buffered solution (20 mM sodium phosphate buffer, pH 7.4) of monoclonal antibody was subjected to shaking on an orbital shaker at 150 rpm, at a controlled temperature of 37° C. These studies were carried out using a 3 ml solution fill of the antibody solution in a 6 cc glass vial. Samples were withdrawn at regular intervals and analyzed for percent monomer using size-exclusion chromatography. Various surfactants of the class of alkylglycosides were evaluated for their effectiveness to prevent protein aggregation during shaking. The surfactants were used at concentrations below their respective critical micelle concentration (CMC) or above their respective CMC.
The surfactants were employed at one half the concentration of their respective CMC values, i.e., 1.1 mM (0.035% w/v) n-decyl-β-D-glucopyranoside, 9 mM (0.24%) n-octyl-β-D-glucopyranoside and 0.04 mM (0.0035%) polysorbate 20.

[4] = test system: Humanized anti-oxidized LDL monoclonal antibody; test: Light-induced oxidation of tryptophan residues (LC/MS/MS tryptic peptide map); format: physicochemical; settings: Light 24 hrs
Method: MAb samples and light treatment: Humanized anti-oxidized LDL monoclonal antibody, was produced at Genentech, Inc. from a CHO cell line. Three independent samples were prepared for photostability studies: 1) control sample, vial wrapped with aluminum foil; 2) test sample, vial light exposed (unwrapped); 3) test sample, vial light exposed (unwrapped) containing the specified non-ionic surfactant. Both control & light exposed samples were kept in a light box for 24 hrs. Light exposure following ICH guideline with following setting for a Atlas SUNTEST CPS+Light Box: Irradiance level=250 watts/square meter; Time set for 24 hours; Total UV dose=538 watt-hours/square meter; Total visible dose=1,320,000 lux-hours.
LC/MS/MS of tryptic MAb peptide map: Samples were digested with trypsin after reduction and alkylation. The resulting peptides were analyzed with a Thermo LTQ-Orbitrap mass spectrometer coupled with an Agilent 1200 capillary HPLC system. HPLC column: Jupiter 5 um C18 250×1.0 mm, flow rate: 70 uL/min, column oven temperature: 55° C. Solvent A: 0.1% TFA in water, B: 0.09% TFA in 90% ACN. Orbitrap setting: MS resolution 60000, MS/MS collected in data dependent mode, using LTQ.
The effect of light, and the protective effect of non-ionic surfactants, on the oxidation of tryptophan residues on an anti-oxidized LDL antibody was determined.

SMILES | CMC Value [1] | CMC Value (w/v) [1] | also measured
OC[C@H]1O[C@H](O[C@H]2[C@H](O)[C@@H](O)[C@H](OCCC3CCCCC3)O[C@@H]2CO)[C@H](O)[C@@H](O)[C@@H]1O [2-cyclohexyl-ethyl-β-D-maltoside] | 120 mM | 5.4% w/v | 
CC(CCO[C@@H]1O[C@H](CO)[C@@H](O)[C@H](O)[C@H]1O)C1CCCCC1 (stereo partly drawn) [3-cyclohexyl-1-butyl-β-D-glucoside] | 1.8 mM | 0.058% w/v | 
OC[C@H]1O[C@@H](OCCCC2CCCCC2)[C@H](O)[C@@H](O)[C@@H]1O [3-cyclohexyl-1-propyl-β-D-glucoside] | 28 mM | 0.86% w/v | 
OC[C@H]1O[C@H](O[C@H]2[C@H](O)[C@@H](O)[C@H](OCCCC3CCCCC3)O[C@@H]2CO)[C@H](O)[C@@H](O)[C@@H]1O [3-cyclohexyl-propyl-β-D-maltoside] | 34.5 mM | 1.6% w/v | 
OC[C@H]1O[C@H](O[C@H]2[C@H](O)[C@@H](O)[C@H](OCCCCC3CCCCC3)O[C@@H]2CO)[C@H](O)[C@@H](O)[C@@H]1O [4-cyclohexyl-butyl-β-D-maltoside] | 7.6 mM | 0.37% w/v | 
OC[C@H]1O[C@H](O[C@H]2[C@H](O)[C@@H](O)[C@H](OCCCCCC3CCCCC3)O[C@@H]2CO)[C@H](O)[C@@H](O)[C@@H]1O [5-cyclohexyl-pentyl-β-D-maltoside] | 2.4 mM | 0.12% w/v | 
OC[C@H]1O[C@H](O[C@H]2[C@H](O)[C@@H](O)[C@H](OCC3CCCCC3)O[C@@H]2CO)[C@H](O)[C@@H](O)[C@@H]1O [cyclohexyl-methyl-β-D-maltoside] | 340 mM | 15% w/v | 
CCCCCCCCCCO[C@@H]1O[C@H](CO)[C@@H](O)[C@H](O)[C@H]1O [n-decyl-β-D-glucopyranoside] | 2.2 mM | 0.07% w/v | increase in percent oxidized Met256 vs initial sample [2]: no significant increase; prevention of shaking-induced loss of percent monomer [3]: effective in preventing loss of monomer
CCCCCCCCCCO[C@@H]1O[C@H](CO)[C@@H](O[C@H]2O[C@H](CO)[C@@H](O)[C@H](O)[C@H]2O)[C@H](O)[C@H]1O [n-decyl-β-D-maltopyranoside] | 1.8 mM | 0.087% w/v | 
CCCCCCCCCCCCO[C@@H]1O[C@H](CO)[C@@H](O)[C@H](O)[C@H]1O [n-dodecyl-β-D-glucopyranoside, reference compound] | 0.19 mM |  | % Oxidized Trp33 ([4]; 0.03 mM surfactant): 0.4%; % Oxidized Trp92 ([4]; 0.03 mM surfactant): 8.9%; CMC Value (% w/v) [1]: 0.0066 % w/v
CCCCCCCCCCCCO[C@@H]1O[C@H](CO)[C@@H](O[C@H]2O[C@H](CO)[C@@H](O)[C@H](O)[C@H]2O)[C@H](O)[C@H]1O [n-dodecyl-β-D-maltopyranoside, reference compound] | 0.17 mM |  | % Oxidized Trp33 ([4]; 0.03 mM surfactant): 0.0%; % Oxidized Trp92 ([4]; 0.03 mM surfactant): 10.6%; % Oxidized Trp33 ([4]; 0.39 mM surfactant): 0.1%; % Oxidized Trp92 ([4]; 0.39 mM surfactant): 2.7%; CMC Value (% w/v) [1]: 0.0087 % w/v
CCCCCCCO[C@@H]1O[C@H](CO)[C@@H](O)[C@H](O)[C@H]1O [n-heptyl-β-D-glucopyranoside] | 70 mM | 1.9% w/v | 
CCCCCCO[C@@H]1O[C@H](CO)[C@@H](O)[C@H](O)[C@H]1O [n-hexyl-β-D-glucopyranoside] | 250 mM | 6.6% w/v | % Oxidized Trp33 ([4]; 0.39 mM surfactant): 0.3%; % Oxidized Trp92 ([4]; 0.39 mM surfactant): 4.9%; % Oxidized Trp33 ([4]; 300 mM surfactant): 0.0%; % Oxidized Trp92 ([4]; 300 mM surfactant): 1.6%
CCCCCCO[C@@H]1O[C@H](CO)[C@@H](O[C@H]2O[C@H](CO)[C@@H](O)[C@H](O)[C@H]2O)[C@H](O)[C@H]1O [n-hexyl-β-D-maltopyranoside] | 210 mM | 8.9% w/v | % Oxidized Trp33 ([4]; 0.39 mM surfactant): 0.3%; % Oxidized Trp92 ([4]; 0.39 mM surfactant): 5.7%; % Oxidized Trp33 ([4]; 300 mM surfactant): 0.0%; % Oxidized Trp92 ([4]; 300 mM surfactant): 2.2%
CCCCCCCCCO[C@@H]1O[C@H](CO)[C@@H](O)[C@H](O)[C@H]1O [n-nonyl-β-D-glucopyranoside] | 6.5 mM | 0.2% w/v | 
CCCCCCCCCO[C@@H]1O[C@H](CO)[C@@H](O[C@H]2O[C@H](CO)[C@@H](O)[C@H](O)[C@H]2O)[C@H](O)[C@H]1O [n-nonyl-β-D-maltopyranoside] | 6 mM | 0.28% w/v | 
CCCCCCCCO[C@@H]1O[C@H](CO)[C@@H](O[C@H]2O[C@H](CO)[C@@H](O)[C@H](O)[C@H]2O)[C@H](O)[C@H]1O [n-octyl-β-D-maltopyranoside] | 19.5 mM | 0.89% w/v | 
